Measured values published in publication PMC6797236, “Bacillus subtilis PgcA moonlights as a phosphoglucosamine mutase in support of peptidoglycan synthesis” (PLoS Genetics, 2019).

Legend:
Assay type in all cases: biochemical
[1] = biological target: T1, PgcA (Bacillus subtilis, UniProt P18159); assay: LC-MS assay of glucose 6-phosphate formation; details: 5 mM MgCl2, 20 uM glucose-1,6-bisphosphate, 50 mM Tris-HCl pH 8.0; PGM reaction
T1 construct: N-terminal 6xHis tag, tag cleavage not mentioned; expressed in E. coli DH5alpha, Ni-NTA purified
T1 sequence (P18159 1-581): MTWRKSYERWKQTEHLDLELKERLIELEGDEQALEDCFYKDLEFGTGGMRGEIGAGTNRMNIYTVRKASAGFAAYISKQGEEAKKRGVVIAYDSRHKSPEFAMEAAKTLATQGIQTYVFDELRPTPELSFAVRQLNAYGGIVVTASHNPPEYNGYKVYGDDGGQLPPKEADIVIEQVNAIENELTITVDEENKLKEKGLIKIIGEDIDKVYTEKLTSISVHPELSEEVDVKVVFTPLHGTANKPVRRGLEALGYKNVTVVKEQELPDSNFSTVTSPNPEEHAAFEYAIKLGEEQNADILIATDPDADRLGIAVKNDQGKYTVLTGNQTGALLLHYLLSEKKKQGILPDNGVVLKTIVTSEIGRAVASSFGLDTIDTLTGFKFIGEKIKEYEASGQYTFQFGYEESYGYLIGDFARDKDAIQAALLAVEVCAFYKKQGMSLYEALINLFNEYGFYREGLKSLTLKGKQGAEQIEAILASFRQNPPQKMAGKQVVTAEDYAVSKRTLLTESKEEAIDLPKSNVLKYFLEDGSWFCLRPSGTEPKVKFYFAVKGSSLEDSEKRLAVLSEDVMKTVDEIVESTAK

[2] = biological target: T1, PgcA; assay: LC-MS assay of glucosamine 6-phosphate formation; details: 5 mM MgCl2, 20 uM glucose-1,6-bisphosphate, 50 mM Tris-HCl pH 8.0; PNGM reaction
[3] = biological target: T2, GlmM (Bacillus subtilis, UniProt O34824); assay: LC-MS assay of glucosamine 6-phosphate formation; details: 5 mM MgCl2, 0.7 mM glucose-1,6-bisphosphate, 50 mM Tris-HCl pH 8.0; PNGM reaction
T2 construct: purified protein; tag and expression of GlmM not described separately
T2 sequence (O34824 1-448): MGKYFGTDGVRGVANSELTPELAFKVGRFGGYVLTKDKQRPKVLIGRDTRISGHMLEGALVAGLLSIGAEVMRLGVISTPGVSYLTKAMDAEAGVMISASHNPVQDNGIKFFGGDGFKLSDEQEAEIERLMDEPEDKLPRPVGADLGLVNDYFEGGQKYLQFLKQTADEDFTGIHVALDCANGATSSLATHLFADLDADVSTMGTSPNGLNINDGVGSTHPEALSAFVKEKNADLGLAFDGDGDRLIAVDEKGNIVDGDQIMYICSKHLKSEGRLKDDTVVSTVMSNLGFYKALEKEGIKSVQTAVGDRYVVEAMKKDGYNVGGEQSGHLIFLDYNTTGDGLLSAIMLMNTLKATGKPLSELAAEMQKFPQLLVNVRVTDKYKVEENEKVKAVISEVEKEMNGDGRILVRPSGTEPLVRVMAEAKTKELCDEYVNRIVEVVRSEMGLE

SMILES | KM [1] | KM [2] | KM [3]
O=P(O)(O)O[C@H]1O[C@H](CO)[C@@H](O)[C@H](O)[C@H]1O [Glc-1-P] | Both PgcA and PgcA G47S were equally active in the PGM reaction |  | 
N[C@H]1[C@@H](OP(=O)(O)O)O[C@H](CO)[C@@H](O)[C@@H]1O [GlcN-1-P] |  | using GlcN-1-P as substrate to monitor the PNGM reaction | GlmM from B. subtilis, which had an affinity for GlcN-1-P substrate
